Test [1] addresses T1, Recombinant Human NF-kappaB-inducing Kinase (NIK/MAP3K14) (Homo sapiens (Human), UniProt Q99558). Kind of test: Biological Assay A2: inhibition of auto-phosphorylation of recombinant human NIK/MAP3K14 (AlphaScreen). The format is biochemical. Conditions: 25 microM ATP, 0.2 nM GST-tagged NIK/MAP3K14, 1 h at 25° C., averaged values, read-out: Alpha-Screen IC50. How it is done:
Inhibition of Auto-phosphorylation of Recombinant Human NF-kappaB-inducing Kinase (NIK/MAP3K14) Activity (AlphaScreen®)
NIK/MAP3K14 auto-phosphorylation activity was measured using the AlphaScreen® (αscreen) format (Perkin Elmer). All compounds tested were dissolved in dimethyl sulfoxide (DMSO) and further dilutions were made in assay buffer. Final DMSO concentration was 1% (v/v) in assays. Assay buffer was 50 mM Tris pH 7.5 containing 1 mM EGTA (ethylene glycol tetraacetic acid), 1 mM DTT (dithiothreitol), 0.1 mM Na3VO4, 5 mM MgCl2, 0.01% Tween® 20. Assays were carried out in 384 well Alphaplates (Perkin Elmer). Incubations consisted of compound, 25 microM Adenosine-5′-triphosphate (ATP), and 0.2 nM NIK/MAP3K14. Incubations were initiated by addition of GST-tagged NIK/MAP3K14 enzyme, carried out for 1 h at 25° C. and terminated by addition of stop buffer containing anti-phospho-IKK Ser176/180 antibody. Protein A Acceptor and Glutathione-Donor beads were added before reading using an EnVision® Multilabel Plate Reader (Perkin Elmer). Signal obtained in the wells containing blank samples was subtracted from all other wells and IC50's were determined by fitting a sigmoidal curve to % inhibition of control versus Log10 compound concentration.
For orientation: Bead proximity is the source of the signal in Alpha formats.

The next test relates to LP-1 cells. Kind of test: Biological Assay C: antiproliferative activity on LP-1 cells (CellTiter-Glo). The format is cell-based. The following applies: Homo sapiens, 72 hr of treatment, averaged values. How it is done:
(§1) Determination of Antiproliferative Activity on LP-1, L-363 and JJN-3 Cells
(§2) All compounds tested were dissolved in DMSO and further dilutions were made in culture medium. Final DMSO concentration was 0.3% (v/v) in cell proliferation assays. Viability was assessed using CellTiter-Glo cell viability assay kit (Promega). The human LP-1, L-363 and JJN-3 cells (DSMZ) were cultured in RPMI 1640 medium supplemented with 2 mM L-glutamine, and 10% fetal calf serum (PAA). Cells were routinely kept as suspension cells at 37° C. in a humidified 5% CO2 atmosphere. Cells were passaged at a seeding density of 0.2×10^6/ml twice a week. Cells were seeded in black tissue culture treated 96-well plates (Perkin Elmer). Densities used for plating ranged from 2,000 to 6,000 cells per well in a total volume of 75 μl medium. After twenty four hours, drugs and/or solvents were added (25 μl) to a final volume of 100 μl. Following 72 hr of treatment plates were removed from the incubator and allowed to equilibrate to room temperature for approx 10 min. 100 μl CellTiter-Glo reagent was added to each well that was then covered (Perkin Elmer Topseal) and shaken on plate shaker for 10 min. Luminescence was measured on a HTS Topcount (Perkin Elmer). Within an experiment, the results for each treatment were the mean of 2 replicate wells. For initial screening purposes, compounds were tested using a 9 point dilution curve (serial 1:3 dilutions). For each experiment, controls (containing no drug) and a blank incubation (containing cells read at the time of compound addition) were run in parallel. The blank value was subtracted from all control and sample values. For each sample, the mean value for cell growth (in relative light units) was expressed as a percentage of the mean value for cell growth of the control.

For another test, the system named is L-363 cells. Kind of test: Biological Assay C: antiproliferative activity on L-363 cells (CellTiter-Glo). The class given is cell-based. Conditions: Homo sapiens, 72 hr of treatment, averaged values. How it is done:
as §1, §2
A general note: ATP-based viability assays read luminescence as a measure of living cells.

A further test concerns JJN-3 cells. Kind of test: Biological Assay C: antiproliferative activity on JJN-3 cells (CellTiter-Glo). The format is cell-based. The following applies: Homo sapiens, 72 hr of treatment, averaged values. How it is done: as §1, §2
The test system of test [2] is P-IKKα levels in L363 cells. Put plainly: Biological Assay B: effect of compounds on P-IKKα levels in L363 cells. The class given is cell-based. Conditions: Homo sapiens, L-363; L363 cells with BAFF, 2 hr treatment; averaged values; read-out: IKKα Cellular IC50. How it is done: Effect of Compounds on P-IKKα Levels in L363 Cells
All compounds tested were dissolved in DMSO and further dilutions were made in culture medium. Final DMSO concentration was 1% (v/v) in cell assays. The human L363 cells (ATCC) were cultured in RPMI 1640 medium supplemented with GlutaMax and 10% fetal calf serum (PAA). Cells were routinely maintained at densities of 0.2×10^6 cells per ml-1×10^6 cells per ml at 37° C. in a humidified 5% CO2 atmosphere. Cells were passaged twice a week splitting back to obtain the low density. Cells were seeded in 96 well plates (Nunc 167008) at 2×10^6 per ml media in a volume of 75 μl per well plus 25 μl 1 μg/ml recombinant human B-cell activating factor (BAFF/BLyS/TNFSF13B). Seeded cells were incubated at 37° C. in a humidified 5% CO2 atmosphere for 24 hr. Drugs and/or solvents were added (20 μl) to a final volume of 120 μl. Following 2 hr treatment plates were removed from the incubator and cell lysis was achieved by the addition of 30 μl 5× lysis buffer followed by shaking on a plate shaker at 4° C. for 10 min. At the end of this incubation lysed cells were centrifuged at 800×g for 20 min at 4° C. and the lysate was assessed for P-IKKα levels by sandwich immuno-assay carried out in anti-rabbit antibody coated Mesoscale plates. Within an experiment, the results for each treatment were the mean of 2 replicate wells. For initial screening purposes, compounds were tested using an 8 point dilution curve (serial 1:3 dilutions). For each experiment, controls (containing MG132 and BAFF but no test drug) and a blank incubation (containing MG132 and BAFF and 10 μM ADS125117, a test concentration known to give full inhibition) were run in parallel. The blank incubation value was subtracted from all control and sample values. To determine the IC50 a sigmoidal curve was fitted to the plot of % inhibition of control P-IKKα levels versus Log10 compound concentration.

For test [3], the target named is T1, Recombinant Human NF-kappaB-inducing Kinase (NIK/MAP3K14). Put plainly: Biological Assay A: inhibition of recombinant human NIK/MAP3K14 activity (MSD, MBP substrate). Conditions: 25 μM ATP, 10 nM NIK/MAP3K14, 1 h at 25° C.; averaged over all measurements on all batches; read-out: Biochemical (MSD MBP) IC50. The method, then: Inhibition of Recombinant Human NF-kappaB-inducing Kinase (NIK/MAP3K14) Activity
Assay buffer was 50 mM Tris pH 7.5 containing 1 mM EGTA (ethylene glycol tetraacetic acid), 1 mM DTT (dithiothreitol), 0.1 mM Na3VO4, 5 mM MgCl2, 0.01% Tween® 20. Assays were carried out in 384 well Mesoscale high binding plates which had been coated with myelin basic protein (MBP) and blocked with bovine serum albumin to prevent non-specific protein binding. All compounds tested were dissolved in dimethyl sulfoxide (DMSO) and further dilutions were made in assay buffer. Final DMSO concentration was 1% (v/v) in assays. Incubations consisted of compound (1% DMSO in control and blank wells), 25 μM Adenosine-5′-triphosphate (ATP), and 10 nM NIK/MAP3K14 substituting enzyme with buffer in the blank wells. Incubations were carried out for 1 h at 25° C. and were followed by washing and sequential incubation with rabbit anti-phospho-MBP and anti-rabbit Ig Sulfotag antibody before reading bound Sulfotag on a Mesoscale Discovery. Signal obtained in the wells containing blank samples was subtracted from all other wells and IC50's were determined by fitting a sigmoidal curve to % inhibition of control versus Log10 compound concentration.

T1 sequence (Q99558 whole entry): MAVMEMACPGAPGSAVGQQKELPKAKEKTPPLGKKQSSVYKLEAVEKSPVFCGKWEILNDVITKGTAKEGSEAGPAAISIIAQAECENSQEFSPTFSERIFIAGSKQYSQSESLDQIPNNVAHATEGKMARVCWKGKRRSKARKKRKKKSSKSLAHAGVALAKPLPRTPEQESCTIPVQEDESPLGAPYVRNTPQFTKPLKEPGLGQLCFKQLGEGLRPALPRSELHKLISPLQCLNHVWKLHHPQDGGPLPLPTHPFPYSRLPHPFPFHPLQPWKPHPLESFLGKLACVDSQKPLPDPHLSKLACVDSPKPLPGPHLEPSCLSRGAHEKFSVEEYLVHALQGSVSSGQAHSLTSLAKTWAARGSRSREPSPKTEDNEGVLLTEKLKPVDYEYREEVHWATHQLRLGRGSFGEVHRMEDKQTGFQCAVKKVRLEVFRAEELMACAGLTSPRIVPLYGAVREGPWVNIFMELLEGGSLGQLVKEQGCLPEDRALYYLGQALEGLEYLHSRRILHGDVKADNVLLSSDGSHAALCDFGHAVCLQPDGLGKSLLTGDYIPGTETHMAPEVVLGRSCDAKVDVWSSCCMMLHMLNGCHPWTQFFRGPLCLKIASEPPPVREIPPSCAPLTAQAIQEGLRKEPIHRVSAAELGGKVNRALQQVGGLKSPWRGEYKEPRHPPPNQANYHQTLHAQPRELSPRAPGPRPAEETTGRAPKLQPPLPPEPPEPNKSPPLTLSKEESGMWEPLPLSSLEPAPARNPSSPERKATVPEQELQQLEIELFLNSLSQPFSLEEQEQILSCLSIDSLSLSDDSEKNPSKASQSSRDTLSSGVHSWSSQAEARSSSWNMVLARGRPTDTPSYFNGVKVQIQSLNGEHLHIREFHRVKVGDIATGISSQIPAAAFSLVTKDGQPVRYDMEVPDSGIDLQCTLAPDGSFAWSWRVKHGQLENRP

Usually IC50 stands for the concentration needed to halve the response being measured. A word on the EC50: it is the concentration giving half of the maximal effect. High values mean lower potency in that assay, low ones higher potency in that assay. `CCn1cc(-c2cn[nH]c2)c2cc(C#CC(C)(O)C3CC3)ncc21` (single isomer, unassigned) [Compound 49]: the IC50 in test [1] is 14 nM. For the same compound, the EC50 was 1700 nM with LP-1 cells, 861 nM in the test on L-363 cells and 1300 nM with JJN-3 cells.
As to `CC(C)(O)C#Cc1cc2c(-c3cn[nH]c3)c[nH]c2cn1` [Compound 1], the values for the IC50 in test [1], in test [2] and in test [3] were 53 nM, 736 nM and 60 nM, respectively. For the same compound, the values for the EC50 in the test with LP-1 cells, in the test with L-363 cells and in the test with JJN-3 cells were greater than 30000 nM, 6980 nM and 3340 nM, respectively.
`CCn1cc(-c2cn[nH]c2)c2cc(C#CC(C)(C)O)ncc21` [Compound 9]: the EC50 is 3060 nM in the test on LP-1 cells, 553 nM in the test on L-363 cells and 526 nM in the test on JJN-3 cells. Moreover, the IC50 in test [2] was found to be 89 nM; in test [3], 9 nM.
As for `CC(C)CS(=O)(=O)n1cc(-c2cn[nH]c2)c2cc(C#CC(C)(C)O)ncc21` [Compound 26], the IC50 in test [1] is 141 nM. Also, the figures for the EC50 with LP-1 cells, in the test on L-363 cells and with JJN-3 cells were 5020 nM, 3330 nM and 3870 nM, respectively.
With `CC(C)(O)C#Cc1cc2c(-c3cn[nH]c3)cn(S(=O)(=O)Cc3ccccc3)c2cn1` [Compound 27], the IC50 in test [1] is 290 nM.
In the case of `CC(C)(O)C#Cc1cc2c(-c3cn[nH]c3)cn(CC(F)(F)F)c2cn1` [Compound 28], the values for the IC50 in test [1] and in test [2] were 43 nM and 338 nM, respectively. Besides, the figures for the EC50 with LP-1 cells, with L-363 cells and in the test with JJN-3 cells were 7380 nM, 1020 nM and 1530 nM, respectively.
With `CC(C)(O)C#Cc1cc2c(-c3cn[nH]c3)cn(C3CCC(CO)CC3)c2cn1` (stereo not shown) [Compound 29], the IC50 is 4 nM in test [1] and 632 nM in test [2]. Moreover, the results for the EC50 with LP-1 cells, with L-363 cells and with JJN-3 cells were 27200 nM, 2430 nM and 4170 nM, respectively.
On to `CC(C)(O)C#Cc1cc2c(-c3cn[nH]c3)cn(C3CCN(CC(F)(F)F)CC3)c2cn1` [Compound 35], for which the IC50 in test [1] was 23 nM. The EC50 in the test on LP-1 cells was found to be 2670 nM; with L-363 cells it was 439 nM; with JJN-3 cells, 820 nM.
For `CC(C)(O)C#Cc1cc2c(-c3cn[nH]c3)cn(C3CCN(CCF)CC3)c2cn1` [Compound 36], in test [1], the concentration for half-maximal inhibition (IC50) was found to be 63 nM. For the same compound, the values for the EC50 in the test with LP-1 cells, in the test with L-363 cells and in the test on JJN-3 cells were 9590 nM, 565 nM and 1620 nM, respectively.
Regarding `CCn1cc(-c2c[nH]nc2NC)c2cc(C#CC(C)(C)O)ncc21` [Compound 37], in test [1], the IC50 is 274 nM. Besides, the figures for the EC50 in the test with LP-1 cells, in the test on L-363 cells and in the test with JJN-3 cells were greater than 30000 nM, 4910 nM and 5660 nM, respectively.
Taken in the same sequence, the figures for `CCn1cc(-c2c[nH]nc2Cl)c2cc(C#CC(C)(C)O)ncc21` [Compound 38] were 13 nM, 3200 nM, 1320 nM and 1660 nM.
As to `CCn1c(C#N)c(-c2cn[nH]c2)c2cc(C#CC(C)(C)O)ncc21` [Compound 39], the IC50 in test [1] came out at 47 nM. Besides, the EC50 in the test on LP-1 cells worked out at 8000 nM; in the test on L-363 cells, 3920 nM; with JJN-3 cells, 4610 nM.
As for `[2H]c1n[nH]c([2H])c1-c1cn(CC)c2cnc(C#CC(C)(C)O)cc12` [Compound 40], the IC50 in test [1] was determined as 38 nM. Moreover, the EC50 in the test with LP-1 cells came to 1950 nM; with L-363 cells it was 260 nM; in the test with JJN-3 cells it was 547 nM.
`CN1CCC(n2cc(-c3c[nH]nc3Cl)c3cc(C#CC(C)(C)O)ncc32)CC1` [Compound 41]: the IC50 in test [1] stood at 79 nM. Further, the EC50 came out at 6110 nM with LP-1 cells, 478 nM in the test on L-363 cells and 1310 nM with JJN-3 cells.
`[2H]c1n[nH]c([2H])c1-c1cn([C@H]2CCN(CCC(F)(F)F)C2)c2cnc(C#CC(O)(C([2H])([2H])[2H])C([2H])([2H])[2H])cc12` [Compound 42]: the IC50 in test [1] is 63 nM. For the same compound, the EC50 turned out to be 2670 nM with LP-1 cells, 1030 nM in the test with L-363 cells and 2220 nM in the test on JJN-3 cells.
Take `[2H]c1n[nH]c([2H])c1-c1cn(C2CCN(C3CC3)CC2)c2cnc(C#CC(O)(C([2H])([2H])[2H])C([2H])([2H])[2H])cc12` [Compound 43]: the IC50 in test [1] came to 44 nM. Also, the EC50 with LP-1 cells stood at 976 nM; with L-363 cells it was 127 nM; in the test on JJN-3 cells, 354 nM.
Taken in the same sequence, the figures for `[2H]c1n[nH]c([2H])c1-c1cn(C2CCN(C)CC2)c2c(C)nc(C#CC(O)(C([2H])([2H])[2H])C([2H])([2H])[2H])cc12` [Compound 44] were 84 nM, 1540 nM, 269 nM and 391 nM.
Regarding `[2H]C([2H])([2H])C(O)(C#Cc1cc2c(-c3c[nH]nc3Cl)cn(C3CCN(C)CC3)c2c(C)n1)C([2H])([2H])[2H]` [Compound 45], in test [1], the IC50 came to 111 nM. Also, the EC50 turned out to be 1450 nM with LP-1 cells, 277 nM in the test on L-363 cells and 415 nM in the test with JJN-3 cells.
In the case of `CCn1cc(-c2cn[nH]c2)c2cc(C#CC(C)O)ncc21` (stereo not shown) [Compound 46], the IC50 in test [1] came out at 13 nM. Also, the results for the EC50 with LP-1 cells, in the test on L-363 cells and with JJN-3 cells were 709 nM, 343 nM and 530 nM, respectively.
Taken in the same sequence, the figures for `CCn1cc(-c2cn[nH]c2)c2cc(C#CC(C)(O)c3cc(C)on3)ncc21` (stereo not shown) [Compound 48] were 14 nM, 6090 nM, 350 nM and 621 nM.

The values are drawn from patent US9981963B2, “3-(1H-pyrazol-4-yl)-1H-pyrrolo[2,3-c]pyridine derivatives as NIK inhibitors” (Janssen Pharmaceutica NV, priority 2013, dated 2018).
